From PubChem BioAssay (NCI)
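Briefly, cells in 96-well plates were exposed to five compound concentrations for 48 h, and endpoints were estimated by linear interpolation. GI50 is the concentration that inhibits growth by half. TGI is the concentration that stops growth completely.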

What was measured:
Assay in all cases: DTP human tumour cell line panel, 48 h
[1] = tested on: A498 renal
[2] = tested on: MDA-MB-435
[3] = tested on: SK-MEL-5 melanoma
[4] = tested on: SR leukemia
[5] = tested on: NCI-H226 lung
[6] = tested on: OVCAR-8 ovarian
[7] = tested on: LOX IMVI melanoma
[8] = tested on: HOP-62 NSCLC
[9] = tested on: SF-539 CNS
[10] = tested on: PC-3 prostate
[11] = tested on: RXF 393 renal
[12] = tested on: SW-620 colon
[13] = tested on: UO-31 renal
[14] = tested on: HL-60(TB) leukemia
[15] = tested on: DU-145 prostate
[16] = tested on: UACC-257 melanoma
[17] = tested on: U251 CNS
[18] = tested on: KM12 colon
[19] = tested on: NCI/ADR-RES ovarian
[20] = tested on: MCF7 breast
[21] = tested on: 786-0 renal
[22] = tested on: IGROV1 ovarian
[23] = tested on: HCT-116 colon
[24] = tested on: HT29 colon
[25] = tested on: EKVX NSCLC
[26] = tested on: MOLT-4 leukemia
[27] = tested on: SK-OV-3 ovarian

Question: Which GI50 [1] does the source give for `O=C(N/N=C\c1ccc(Cl)cc1)c1ccc2nc(-c3ccc(Br)cc3)[nH]c2c1` here?
Answer: 1670 nM

Question: What about the TGI [1] of the same molecule?
Answer: 3680 nM

Question: What about the GI50 [2] of the same molecule?
Answer: 1520 nM

Question: What about the TGI [2] of the same molecule?
Answer: 3150 nM

Question: What about the GI50 [3] of the same molecule?
Answer: 1850 nM

Question: And the TGI [3]?
Answer: 3630 nM

Question: And the GI50 [4]?
Answer: 895 nM

Question: And the TGI [4]?
Answer: 3390 nM

Question: And the GI50 [5]?
Answer: 4960 nM

Question: And the TGI [5]?
Answer: 24000 nM

Question: And the GI50 [6]?
Answer: 1490 nM

Question: And the TGI [6]?
Answer: 2880 nM

Question: And the GI50 [7]?
Answer: 1490 nM

Question: What about the TGI [7] of the same molecule?
Answer: 3090 nM

Question: And the GI50 [8]?
Answer: 1640 nM

Question: And the TGI [8]?
Answer: 3200 nM

Question: What about the GI50 [9] of the same molecule?
Answer: 1720 nM

Question: And the TGI [9]?
Answer: 3240 nM

Question: And the GI50 [10]?
Answer: 1580 nM

Question: What about the TGI [10] of the same molecule?
Answer: 2990 nM

Question: And the GI50 [11]?
Answer: 1500 nM

Question: What about the TGI [11] of the same molecule?
Answer: 3180 nM

Question: And the GI50 [12]?
Answer: 1600 nM

Question: What about the TGI [12] of the same molecule?
Answer: 3260 nM

Question: And the GI50 [13]?
Answer: 1450 nM

Question: And the TGI [13]?
Answer: 2860 nM

Question: What about the GI50 [14] of the same molecule?
Answer: 2040 nM

Question: What about the TGI [14] of the same molecule?
Answer: 5030 nM

Question: And the GI50 [15]?
Answer: 1980 nM

Question: What about the TGI [15] of the same molecule?
Answer: 4180 nM

Question: What about the GI50 [16] of the same molecule?
Answer: 1600 nM

Question: And the TGI [16]?
Answer: 3100 nM

Question: What about the GI50 [17] of the same molecule?
Answer: 1780 nM

Question: What about the TGI [17] of the same molecule?
Answer: 3180 nM

Question: And the GI50 [18]?
Answer: 1860 nM

Question: And the TGI [18]?
Answer: 4160 nM

Question: And the GI50 [19]?
Answer: 2440 nM

Question: What about the TGI [19] of the same molecule?
Answer: 8010 nM

Question: What about the GI50 [20] of the same molecule?
Answer: 1010 nM

Question: What about the TGI [20] of the same molecule?
Answer: 2460 nM

Question: And the GI50 [21]?
Answer: 1760 nM

Question: And the TGI [21]?
Answer: 3260 nM

Question: And the GI50 [22]?
Answer: 1580 nM

Question: What about the TGI [22] of the same molecule?
Answer: 3410 nM

Question: What about the GI50 [23] of the same molecule?
Answer: 1490 nM

Question: What about the TGI [23] of the same molecule?
Answer: 2990 nM

Question: And the GI50 [24]?
Answer: 1040 nM

Question: And the TGI [24]?
Answer: 2380 nM

Question: And the GI50 [25]?
Answer: 2030 nM

Question: And the TGI [25]?
Answer: 4280 nM

Question: What about the GI50 [26] of the same molecule?
Answer: 1620 nM

Question: What about the TGI [26] of the same molecule?
Answer: 4290 nM

Question: And the GI50 [27]?
Answer: 1510 nM

Question: What about the TGI [27] of the same molecule?
Answer: 3870 nM
